We go through two compounds from PMC11997127 (Scientific Reports, 2025).

Test [1] deals with T1, Staphylococcus aureus lipase (SAL) (Staphylococcus aureus, UniProt Q2G155). In words: pNPB hydrolysis assay. Format: biochemical.
Test [2] has as its target T1, Staphylococcus aureus lipase (SAL). In words: X-ray co-crystal structures. Format: biochemical.

T1 sequence (Q2G155 297-690): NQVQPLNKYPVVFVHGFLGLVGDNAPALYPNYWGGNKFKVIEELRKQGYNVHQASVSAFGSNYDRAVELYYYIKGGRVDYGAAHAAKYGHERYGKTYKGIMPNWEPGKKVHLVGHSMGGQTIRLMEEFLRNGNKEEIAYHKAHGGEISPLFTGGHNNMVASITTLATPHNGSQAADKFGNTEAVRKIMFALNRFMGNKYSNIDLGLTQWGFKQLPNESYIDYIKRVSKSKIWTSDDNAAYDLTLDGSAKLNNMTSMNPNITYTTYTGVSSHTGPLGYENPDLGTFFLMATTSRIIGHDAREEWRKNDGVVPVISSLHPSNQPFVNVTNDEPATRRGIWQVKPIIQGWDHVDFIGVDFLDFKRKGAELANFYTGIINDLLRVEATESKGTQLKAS

Turning to `O=c1[nH]c2ccccc2n1C1CCN(CCCC(c2ccc(F)cc2)c2ccc(F)cc2)CC1` [pimozide, 3-[1-[4,4-bis(4-fluorophenyl)butyl]piperidin-4-yl]-1H-benzimidazol-2-one], the 50% inhibitory concentration (IC50) (as a rule, the concentration needed to halve the response being measured) in test [1] was approximately 48.5 µM.

With `OC1(c2ccc(Cl)c(C(F)(F)F)c2)CCN(CCCC(c2ccc(F)cc2)c2ccc(F)cc2)CC1` [penfluridol, 1-[4,4-bis(4-fluorophenyl)butyl]-4-[4-chloro-3-(trifluoromethyl)phenyl]piperidin-4-ol], the 50% inhibitory concentration (IC50) in test [2] came to 7.3 µM.
